Results as given in patent US20210369739A1, “COMBINATION THERAPY OF ACYLTHIOUREA COMPOUND AND ABIRATERONE” (TAIHO PHARMACEUTICAL CO., LTD., priority 2018, published 2021).

Key:
[1] = test system: bone metastasis of castration-resistant prostate cancer; assay: Combinational administration test: bone scintigraphy, Bone Scan Index (BSI); format: in vivo, human; conditions: with 1000 mg abiraterone acetate once a day
Protocol: (§1) A methanesulfonate salt of compound I and abiraterone acetate were administered to patients of castration-resistant prostate cancer with bone metastasis as subjects, and the efficacy and side effects were evaluated. A schedule of administering the methanesulfonate salt of compound I in any of three doses in terms of the free form (200, 300, or 400 mg/body/day) to patients who were receiving secondary endocrine therapy before docetaxel treatment as subjects once a day for 5 days and taking a drug holiday of the compound I only for 2 days was repeated. During this period, 1000 mg of abiraterone acetate was administered to every dosage groups every day once a day, and six subjects were examined in each dosage group. […] In the side effects that determine this discontinuation of enrollment and evaluation, etc., abnormal clinical examination values, such as an increase in alanine aminotransferase (ALT), an increase in aspartate aminotransferase (AST), and an increase in blood creatine kinase (CK), are not included. […] Accordingly, since the number of cases for evaluation of each dosage group is small, i.e., 6 cases, from the viewpoint of the efficacy, side effects, and administration continuity, 6 cases at 300 mg/body/day were additionally evaluated.
Regarding the efficacy, bone scintigraphy to be used for detecting bone metastasis was implemented, and evaluation was performed based on Bone Scan Index (BSI) using analytical data by BONE NAVI and criteria of Response Evaluation Criteria in Solid Tumors (RECIST) guideline Version 1.1 or Prostate Cancer Clinical Trials Working Group 3 (PCWG3). […] The ANN value indicates the degree of confidence of metastasis on a scale from 0 to 1, and an ANN value exceeding 0.5 is assessed to have a risk of bone metastasis. In addition, in FIG. 1, the best value among BSI measured during the period of administration of the compound I is shown as Best response based on the bone metastasis on the day of starting the administration in each dosage group.

[2] = Combinational administration test: seriousness of side effects (CTCAE Ver. 4.03); format: in vivo, human; conditions: every dosage group; in combination with abiraterone acetate
Protocol: as §1, with “additionally evaluated. […]” for “additionally evaluated.”

## CNC(=O)c1cc2c(Oc3ccc(NC(=S)NC(=O)Cc4ccccc4)cc3F)ccnc2cc1OC [compound I, 4-(2-fluoro-4-(3-(2-phenylacetyl)thioureido)phenoxy)-7-methoxy-N-methylquinoline-6-carboxamide]
[1]; 200 mg/body/day as free form, once a day for 5 days then 2-day holiday, CRPC patients with bone metastasis
  suppression of bone metastasis observed (BSI): two of six
[1]; 300 mg/body/day, among the 10 cases with suppression
  BSI value became 0: three
[1]; 400 mg/body/day as free form, bone metastasis not measurable in one of six cases
  suppression of bone metastasis observed (BSI): five of the remaining five
[2]
  side effects: acceptable
